In PubChem BioAssay AID463136 (University of Pittsburgh Molecular Library Screening Center, 2010):
Records with an inconclusive call do not appear. Active and inactive are the calls of the source. No rule for the calls is given here.

Experiments:
[1] = tested on: HCS imaging, dynein-mediated cargo transport inhibition; test: blockers of dynein-driven microtubule transport – imaging, high-content imaging, dose response (AID 463136);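 also: mouse mammary adenocarcinoma 3617.4 cells expressing GFP-tagged rat glucocorticoid receptor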; as to inhibition: reference of the scale not given here
[2] = as above; conditions: HCS imaging, dynein-mediated cargo transport inhibition; inhibition at max concentration; at 50 µM; stronger effect = higher value

Compound	IC50 [1]	inhibition [2] [%]
CCCn1c(CC)nc([N+](=O)[O-])c1S(=O)(=O)c1ccccc1	7.21 µM	85.2
Cc1nc2c(=O)n(C)c(=O)n(C)c2nc1Cl	9.82 µM	62.9
Cc1[nH]c2ccccc2c1/C=N/Nc1ccc([N+](=O)[O-])cc1	24.8 µM	132
O=C1C=CC(O)(c2cc(=O)c3c(O)cc(O)cc3o2)C=C1	5.9 µM	86.7
CC(=O)n1cc(N(C(=O)CCl)c2ccc([N+](=O)[O-])cc2)c2ccccc21	> 50 µM (inactive)	25.2
Cc1ccc(C(=O)NC(C#N)=C(Cl)Cl)cc1	6.71 µM	82.3
O=Cc1s/c(=N\S(=O)(=O)c2ccccc2)n(CCCCl)c1Cl	33.2 µM	68.2
CC(C)(C)C(=O)Cn1ncc(Cl)c(Cl)c1=O	7.93 µM	90.6
O=c1c(Cl)c(Cl)cnn1-c1ccccc1	9.57 µM	81.7
Cc1nc([N+](=O)[O-])c(Br)n1CC(=O)c1ccc(F)cc1	3.25 µM	92.2
CC[n+]1c(/C=C2\Sc3ccccc3N2C)ccc2cccc(C)c21	0.765 µM	28.3
COc1ccccc1NS(=O)(=O)c1cc([N+](=O)[O-])ccc1N/N=C/c1c[nH]c2ccccc12	> 50 µM (inactive)	21.9
COC(=O)/C=C\C(=O)Nc1cccc([N+](=O)[O-])c1	> 50 µM (inactive)	5.31
CCSc1nc2ccccc2n1C(=O)/C=C\c1ccc(OC)c(OC)c1	> 50 µM (inactive)	7.37
CCOC(=O)CC1C(=O)NCCN1c1nc2ccc(C)cn2c(=O)c1/C=C1\SC(=S)N(CC(C)C)C1=O (stereo not drawn)	44.9 µM	71.8
O=c1cc(N=Nc2ccc(Cl)cc2)[nH]c(=O)[nH]1	13.6 µM	80.6
CCOc1ccc2noc3c2c1C(=O)c1ccccc1-3	11 µM	99.2
CCSc1nnc(-c2sc3nnc(-c4ccccc4)c(-c4ccccc4)c3c2N)o1	31.3 µM	134
Cc1ccc(C(C)C)c(OCC(=O)NN=C(CCl)CCl)c1	> 50 µM (inactive)	36.3
Cc1ccc(N(C(=O)CCl)C(C(=O)NC2CCCCC2)c2cccnc2)cc1C (stereo not drawn)	4.62 µM	86.1

Compound	IC50 [1]	inhibition [2] [%]
Cc1cc(C)cc(N=Cc2[nH]c3ccc(Br)c(Cl)c3c2O)c1	27.6 µM	122
O=C1c2ccccc2-c2onc3ccc(NCc4ccco4)c1c23	41.4 µM	87.2
CCC(=O)Nc1ccc(C(=O)Cn2ncc(Cl)c(Cl)c2=O)cc1	15.7 µM	72.4
O=C(NCc1cccnc1)/C(=C/c1ccc(-c2ccc(Cl)cc2)o1)S(=O)(=O)c1ccccc1	34.3 µM	59.1
CCN(CC)c1ccc(/C=N/c2sc3c(c2C#N)C2CCN3CC2)c(O)c1	38 µM	82.6
O=C(NCc1cccnc1)/C(=C\c1ccc(-c2ccc(Br)cc2)o1)S(=O)(=O)c1ccccc1	39.4 µM	55.1
COc1cc(N2C(=O)C=CC2=O)c(OC)cc1Cl	> 50 µM (inactive)	12.9
N#CC(C#N)=C1C=C2C=C(N3CCOCC3)CCC2CC1 (stereo not drawn)	42.8 µM	99
O=[N+]([O-])/C=C/c1cn(Cc2ccc(F)cc2)c2ccccc12	> 50 µM (inactive)	14
COc1ccc(C(=O)Cn2c(C)nc([N+](=O)[O-])c2Br)cc1	3.56 µM	86.4
CCCCc1ccc(/C=C2\C(=O)c3ccccc3C(O)=C2C(=O)OCC)cc1	> 50 µM (inactive)	15.5
CCOC(=O)CC1C(=O)NCCN1c1nc2ccc(C)cn2c(=O)c1/C=C1\SC(=S)N(C(C)CC)C1=O (stereo not drawn)	27.3 µM	80.8
O=C(CCl)Nc1cc(SCC(O)CO)cc([N+](=O)[O-])c1 (stereo not drawn)	10.5 µM	88
CCCNC(=O)Cn1c(=O)/c(=C\c2ccc(-c3ccc([N+](=O)[O-])cc3)o2)s/c1=C\C(=O)C(C)(C)C	32.2 µM	95.2
CC(C)(C)C1C/C(=C/c2ccco2)C(=O)/C(=C/c2ccco2)C1 (stereo not drawn)	24.9 µM	101
CCN1CC=C2C(C#N)=C(N)C(C#N)(C#N)C(CCc3ccccc3)C2C1 (stereo not drawn)	19.5 µM	98.8
CC(=O)OCCCNc1cc(Sc2ccc(Cl)cc2)c2nonc2c1[N+](=O)[O-]	41 µM	60.4
N#CC(C#N)=C1C=CC=CN1/C(=C\c1ccco1)C(=O)c1ccc(Br)cc1	> 50 µM (inactive)	33.6
Cc1ccc(NC(=O)CN(C)C(=O)Cn2ncc(Cl)c(Cl)c2=O)cc1	7.77 µM	59
O=C(c1nnsc1S(=O)c1ccc(Cl)cc1)N1CCOCC1 (stereo not drawn)	2.18 µM	76.9

Compound	IC50 [1]	inhibition [2] [%]
CC(C)CC(=O)/C=C/n1c(=S)oc2ccccc21	> 50 µM (inactive)	24.5
Cc1cc(C)c2c(=O)n(CC(=O)NCCCN3CCN(c4ccccc4F)CC3)sc2n1	14 µM	96.3
Cn1c(=O)c(Nc2ccc(Cl)cc2)c2c3c(cccc31)C(=O)c1ccccc1-2	31 µM	97.8
Cc1ccc(SC(=O)c2c([N+](=O)[O-])c(C)nn2C)cc1	> 50 µM (inactive)	6.09
Cc1ccc(-n2ncc(Br)c(Br)c2=O)cc1	13.8 µM	70.1
O=[N+]([O-])c1ccc(/C=C/C2=NN(c3ccccc3)C(c3ccco3)C2)o1 (stereo not drawn)	> 50 µM (inactive)	37.1
CCOC(=O)/C(=C\c1cccnc1)C(=O)c1cc(C(C)=O)c(Nc2ccccc2)s1	9.84 µM	80.4
Cc1nc([N+](=O)[O-])c(Br)n1CC(=O)c1ccc(Br)cc1	14.7 µM	82
CN(C)c1ccc(/C=C/C(=O)c2cccc(Br)c2)cc1	> 50 µM (inactive)	18.7
CCOC(=O)c1cn(-c2c(Cl)cccc2Cl)c2cc(Cl)c([N+](=O)[O-])cc2c1=O	29 µM	82.8
CC(C)(C)NC(=S)N/N=C\c1ccc(-c2ccc([N+](=O)[O-])cc2)o1	> 50 µM (inactive)	3.06
Cc1cc(N2CCCC2)c(F)cc1/C=C\[N+](=O)[O-]	25.2 µM	126
Cc1nc([N+](=O)[O-])c(Br)n1CC(=O)c1cccc([N+](=O)[O-])c1	9.94 µM	91.4
CC1(C)C(=O)Nc2ccccc2N1C(=O)Cn1ncc(Cl)c(Cl)c1=O	12.3 µM	71.9
CCN(CC)c1ccc(/C=C/[N+](=O)[O-])cc1	> 50 µM (inactive)	0.227
Cc1cc(Cl)n2c(nc3cc(F)c(F)cc32)c1C#N	25.5 µM	36.6
C#CC(=O)N(c1ccc(OC)cc1OC)C(C(=O)NC1CCCC1)c1cccs1 (stereo not drawn)	> 50 µM (inactive)	0.987
COc1cccc(/C=C/C(=O)c2cccc([N+](=O)[O-])c2)c1OC	> 50 µM (inactive)	27.1
CCOC(=O)c1c2ccc(OCC(=O)N/N=C/c3ccc(Cl)cc3)cc2n2ccccc12	> 50 µM (inactive)	27.4
